What was measured:
[1] = system: rat diaphragm fiber bundles; experiment: Force-frequency relationship (isometric force) of isolated diaphragm fiber bundles; type: cell-based; conditions: for contractile increases (force-frequency relationship): same dose range as NIZ (100 uM-1 mM)
Description: FIGS. 3A and 3B. Skeletal muscle contractile properties are related to NOS activity Muscles (Soleus, n=6; DPH, diaphragm fiber bundles, n=7; EDL, extensor digitorum longus, n=5) were surgically isolated from deeply anesthetized rats, mounted in vitro at optimal length, and incubated at 37° C. in oxygenated buffered Krebs-Ringer solution containing d-tubocurarine 25 uM. Direct field stimulation (0.2 ms pulses, 250 ms train duration, supramaximal voltage) was used to evoke twitch (1 Hz) and tetanic (15, 30, 40, 50, 80, 120, 200 Hz) contractions. Isometric force was measured. Upper panel (A) depicts the average forces (+/-SE) developed at frequencies of 1-200 Hz. Tetanic stimulation at any submaximal frequency (15-150 Hz) evoked different amounts of force production among the muscles (Soleus>DPH>EDL). A vertical dotted line identifies the frequency (40 Hz) used in comparisons of NOS activity.
FIGS. 4A and 4B. Endogenous NO depresses contractile function. Fiber bundles were isolated from rat diaphragm and studied using methods described in FIG. 3. Panel A depicts the average forces (+SE) developed at stimulus frequencies of 1-120 Hz by muscles incubated in Krebs-Ringer solution containing either 7-nitroindazole (NIZ; n=3 per frequency) or aminoguanidine (AMG, n=3 per frequency). Forces are expressed as percentages of maximal tetanic force (PO).

[2] = system: other NOS isoforms; conditions: Misko et al. 1993; cited from earlier work
[3] = system: rat diaphragm fiber bundles; experiment: Force developed at 40 Hz (submaximal tetanic contraction) by diaphragm fiber bundles; type: cell-based
Description: FIGS. 3A and 3B. […] Direct field stimulation (0.2 ms pulses, 250 ms train duration, supramaximal voltage) was used to evoke twitch (1 Hz) and tetanic (15, 30, 40, 50, 80, 120, 200 Hz) contractions. Isometric force was measured. Upper panel (A) depicts the average forces (+/-SE) developed at frequencies of 1-200 Hz. […] A vertical dotted line identifies the frequency (40 Hz) used in comparisons of NOS activity.
FIGS. 4A and 4B. […] Fiber bundles were isolated from rat diaphragm and studied using methods described in FIG. 3. Panel A depicts the average forces (+SE) developed at stimulus frequencies of 1-120 Hz by muscles incubated in Krebs-Ringer solution containing either 7-nitroindazole (NIZ; n=3 per frequency) or aminoguanidine (AMG, n=3 per frequency). Forces are expressed as percentages of maximal tetanic force (PO).
Fiber bundles were isolated from rat diaphragm and studied using methods described in the description of FIG. 3. Data are mean forces (±SE) developed at 40 Hz by fiber bundles (n=5 or 6/group) treated with NLA (transcribed from FIG. 4B), NLA plus dipyramidole (DPM; phosphodiesterase inhibitor) 10 uM, 8-bromo-cGMP (BGMP; exogenous CGMP analogue), or DPM plus BGMP. Forces are expressed as percentages of the average force developed at 40 Hz by time- and stimulus-matched control muscle (shown±SE by horizontal dashed lines).

[4] = system: b-NOS; conditions: Moore et al.; cited from earlier work

## N=C(N)NN [AMG, aminoguanidine]
[1]
  contractile increases (force-frequency relationship): Similar, albeit smaller, contractile increases
[2]
  NOS isoform selectivity: relative selectivity towards other NOS isoforms

## Nc1nc2c(nc(Br)n2[C@@H]2O[C@@H]3COP(=O)(O)O[C@H]3[C@H]2O)c(=O)[nH]1 [BGMP, 8-bromo-cGMP]
[3]; 40 Hz, FIG. 5
  effect on contractile increases caused by NOS inhibition: reversed
[3]; NLA-treated bundles, DPM 10 uM, FIG. 5, p<0.0001
  force developed at 40 Hz, compared with control: greater than control

## OCCN(CCO)c1nc(N2CCCCC2)c2nc(N(CCO)CCO)nc(N3CCCCC3)c2n1 [DPM, dipyridamole]
[3]; 40 Hz, FIG. 5
  effect on contractile increases caused by NOS inhibition: reversed

## N=C(N)NCCC[C@H](N)C(=O)O [L-arginine]
[1]
  contractile increases (force-frequency relationship): not

## O=[N+]([O-])c1cccc2cn[nH]c12 [NIZ, 7-nitroindazole]
[1]; 100 uM, p<0.05
  effect on contractile function (force-frequency relationship): Significant effects
[1]; 1 mM, FIG. 4A
  effect on contractile function (force-frequency curve): profoundly influenced contractile function, causing the diaphragm force-frequency curve to closely approximate that of the soleus
[1]; 1 mM, FIG. 4A, repeated measures ANOVA
  shift of the diaphragm force-frequency relationship: shifted the diaphragm force-frequency relationship up and to the left (p<0.0001 by repeated measures ANOVA) such that it was indistinguishable from the relationship measured in untreated soleus
[4]
  NOS isoform specificity: b-NOS specific inhibitor

## CC(=O)N[C@@H](CSN=O)C(=O)O [SNAC, S-nitroso-N-acetylcysteine]
[3]; 100 uM, FIG. 4B
  contractile function with exogenous NO donor: depressing contractile function
[3]; 40 Hz, SNAC 100 uM, NP 100 uM, NLA 10 mM, FIG. 4B
  force developed at 40 Hz, compared with control: not different from control

## CN(C)c1ccc2nc3ccc(=[N+](C)C)cc-3sc2c1 [methylene blue]
[3]; 10 uM, p<0.001, data not shown
  force production during submaximal tetanic contraction: increased force production

## Hemoglobin
[3]; 40 Hz, 50 uM, n=5, p=0.052
  force production during submaximal tetanic contraction: enhances force production
[3]; 40 Hz, 50-250 uM, n=10, p<0.001
  force production during submaximal tetanic contraction: enhances force production

From patent publication US5583101A, “Use of nitrogen oxide species and adducts to inhibit skeletal muscle contraction” (Harvard College, priority 1994, dated 1996)
